Experimental data published in PubChem BioAssay AID1845203 (Molecular Pharmacology Branch, DTP, NCI, 2023).
pIC50: −log10 of the molar value.

Test system: G-401 tumor spheroids, viability % test/control
Assay: Anticancer human tumor G-401 cell line growth inhibition;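 further: spheroids exposed to compound for 7 days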;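 on viability, T/C: 100% = DMSO vehicle-treated spheroids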
Conditions: spheroids with HUVEC and MSC; for pIC50: curve of first compound; for viability, T/C: stronger effect = lower value
Summary of the method: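 Single agents and combinations were tested on spheroids built from tumor cells plus HUVEC and hMSC, at half-log dilutions starting at or near clinical Cmax, else 10 microM; final DMSO 0.25% (v/v).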

[1] = second compound 1 µM, first compound 0.0316 µM
[2] = second compound 1 µM, first compound 0.1 µM
[3] = second compound 1 µM, first compound 0.316 µM
[4] = second compound 1 µM, first compound 1 µM
[5] = second compound 1 µM, first compound 3.16 µM
[6] = second compound 1 µM, first compound 10 µM
[7] = second compound 3.16 µM, first compound 0.0316 µM
[8] = second compound 3.16 µM, first compound 0.1 µM
[9] = second compound 3.16 µM, first compound 0.316 µM
[10] = second compound 3.16 µM, first compound 1 µM
[11] = second compound 3.16 µM, first compound 3.16 µM
[12] = second compound 3.16 µM, first compound 10 µM
[13] = second compound 10 µM, first compound 0.0316 µM
[14] = second compound 10 µM, first compound 0.1 µM
[15] = second compound 10 µM, first compound 0.316 µM
[16] = second compound 10 µM, first compound 1 µM
[17] = second compound 10 µM, first compound 3.16 µM
[18] = second compound 10 µM, first compound 10 µM
[19] = second compound 31.6 µM, first compound 0.0316 µM
[20] = second compound 31.6 µM, first compound 0.1 µM
[21] = second compound 31.6 µM, first compound 0.316 µM
[22] = second compound 31.6 µM, first compound 1 µM
[23] = second compound 31.6 µM, first compound 3.16 µM
[24] = second compound 31.6 µM, first compound 10 µM
[25] = second compound 100 µM, first compound 0.0316 µM
[26] = second compound 100 µM, first compound 0.1 µM
[27] = second compound 100 µM, first compound 0.316 µM
[28] = second compound 100 µM, first compound 1 µM
[29] = second compound 100 µM, first compound 3.16 µM
[30] = second compound 100 µM, first compound 10 µM

| SMILES | pIC50 (second compound 1 µM) | pIC50 (second compound 3.16 µM) | pIC50 (second compound 10 µM) | pIC50 (second compound 31.6 µM) | pIC50 (second compound 100 µM) | viability, T/C [1] [%] | viability, T/C [2] [%] | viability, T/C [3] [%] | viability, T/C [4] [%] | viability, T/C [5] [%] | viability, T/C [6] [%] | viability, T/C [7] [%] | viability, T/C [8] [%] | viability, T/C [9] [%] | viability, T/C [10] [%] | viability, T/C [11] [%] | viability, T/C [12] [%] | viability, T/C [13] [%] | viability, T/C [14] [%] | viability, T/C [15] [%] | further results |
| --- | --- | --- | --- | --- | --- | --- | --- | --- | --- | --- | --- | --- | --- | --- | --- | --- | --- | --- | --- | --- | --- |
| CC(C)n1c(=O)n(C)c2cnc3cc(F)c(-c4ccc(OCCCN5CCCCC5)nc4)cc3c21 + Cn1nnc2c(C(N)=O)ncn2c1=O | < 5.00 | < 5.00 | < 5.00 | < 5.00 | < 5.00 | 99.9 | 104 | 102 | 104 | 103 | 76.5 | 81.6 | 102 | 102 | 102 | 99.4 | 83.6 | 105 | 98.9 | 97.5 | viability, T/C [16]: 103%; viability, T/C [17]: 101%; viability, T/C [18]: 66.2%; viability, T/C [19]: 97.8%; viability, T/C [20]: 95.4%; viability, T/C [21]: 97.7%; viability, T/C [22]: 96.3%; viability, T/C [23]: 90.4%; viability, T/C [24]: 62.8%; viability, T/C [25]: 89.6%; viability, T/C [26]: 92.5%; viability, T/C [27]: 86.6%; viability, T/C [28]: 88%; viability, T/C [29]: 91.6%; viability, T/C [30]: 80.1% |
| CC1COCCN1c1cc(-c2ccnn2C)c2ccnc(-c3ccn[nH]3)c2n1 (stereo not given) + Cn1nnc2c(C(N)=O)ncn2c1=O | 7.11 | 7.06 | 7.10 | 7.15 | 7.25 | 76.3 | 42.1 | 22.9 | 15.9 | 16.1 | 20 | 79.8 | 45.6 | 24.9 | 16.8 | 17.4 | 19.8 | 76 | 43.6 | 21.5 | viability, T/C [16]: 15.7%; viability, T/C [17]: 16.4%; viability, T/C [18]: 18.8%; viability, T/C [19]: 74.5%; viability, T/C [20]: 39%; viability, T/C [21]: 18%; viability, T/C [22]: 15.4%; viability, T/C [23]: 16.2%; viability, T/C [24]: 18.5%; viability, T/C [25]: 66%; viability, T/C [26]: 33.4%; viability, T/C [27]: 13.7%; viability, T/C [28]: 12.7%; viability, T/C [29]: 14.1%; viability, T/C [30]: 12% |
| COc1cc(C)[nH]c(=O)c1CN1CCc2c(Cl)cc(C(OC)C3COC3)c(Cl)c2C1=O (stereo not given) + Cn1nnc2c(C(N)=O)ncn2c1=O | 6.80 | 6.70 | 6.84 | 6.68 | 6.69 | 88.4 | 57.9 | 38.3 | 31.7 | 21.3 | 27.6 | 86.3 | 63 | 41.2 | 30.4 | 24.3 | 23.5 | 81 | 59.9 | 25.5 | viability, T/C [16]: 33.8%; viability, T/C [17]: 30.4%; viability, T/C [18]: 27.2%; viability, T/C [19]: 81.8%; viability, T/C [20]: 60.8%; viability, T/C [21]: 43.9%; viability, T/C [22]: 32.2%; viability, T/C [23]: 27.9%; viability, T/C [24]: 23.4%; viability, T/C [25]: 88.3%; viability, T/C [26]: 62%; viability, T/C [27]: 43.3%; viability, T/C [28]: 29.6%; viability, T/C [29]: 30.8%; viability, T/C [30]: 24.7% |
| COc1ccc([C@@H](O)c2cc(-c3ncnc4cc(N5CCOCC5)ccc34)c(F)cc2Cl)nn1 + Cn1nnc2c(C(N)=O)ncn2c1=O | 5.87 | 6.03 | 5.90 | 5.95 | 5.99 | 103 | 95.7 | 88.1 | 60.9 | 21.9 | 9.93 | 96.6 | 90.8 | 91.4 | 46.3 | 20.6 | 10.6 | 105 | 96.1 | 90 | viability, T/C [16]: 57.8%; viability, T/C [17]: 20.9%; viability, T/C [18]: 10.8%; viability, T/C [19]: 90.9%; viability, T/C [20]: 88.8%; viability, T/C [21]: 85.1%; viability, T/C [22]: 52%; viability, T/C [23]: 22.5%; viability, T/C [24]: 10.8%; viability, T/C [25]: 89.5%; viability, T/C [26]: 87.4%; viability, T/C [27]: 82.9%; viability, T/C [28]: 49.5%; viability, T/C [29]: 19.1%; viability, T/C [30]: 8.51% |
